The source made the active and inactive calls. No cut-off for these calls is given here.
Key:
SK-MEL-2 = test: Growth inhibition of human SK-MEL-2 cells assessed as cell growth at 10^-5 M incubated for 48 hrs by sulforhodamine B assay relative to control; format: functional; conditions: SK-MEL-2, 48 h, read-out: Activity
HCT-116 [1] = test: Growth inhibition of human HCT116 cells assessed as cell growth at 10^-5 M incubated for 48 hrs by sulforhodamine B assay relative to control; format: functional; conditions: HCT-116, 48 h, read-out: Activity
HCT-116 [2] = test: Growth inhibition of human HCT116 cells incubated for 48 hrs by sulforhodamine B assay; format: functional; conditions: HCT-116, 48 h
NCI-H460 [3] = test: Growth inhibition of human NCI-H460 cells assessed as cell growth at 10^-4 M incubated for 48 hrs by sulforhodamine B assay relative to control; format: functional; conditions: NCI-H460, 48 h, read-out: Activity
HCT-15 [4] = test: Growth inhibition of human HCT15 cells assessed as cell growth at 10^-8 M incubated for 48 hrs by sulforhodamine B assay relative to control; format: functional; conditions: HCT-15, 48 h, read-out: Activity
IGROV-1 = test: Growth inhibition of human IGROV1 cells assessed as cell growth at 10^-5 M incubated for 48 hrs by sulforhodamine B assay relative to control; format: functional; conditions: IGROV-1, 48 h, read-out: Activity
BT-549 = test: Growth inhibition of human BT549 cells assessed as cell growth at 10^-8 M incubated for 48 hrs by sulforhodamine B assay relative to control; format: functional; conditions: BT-549, 48 h, read-out: Activity
A498 = test: Growth inhibition of human A498 cells incubated for 48 hrs by sulforhodamine B assay; format: functional; conditions: A498, 48 h
NCI-H460 [5] = test: Growth inhibition of human NCI-H460 cells assessed as cell growth at 10^-5 M incubated for 48 hrs by sulforhodamine B assay relative to control; format: functional; conditions: NCI-H460, 48 h, read-out: Activity
LOX IMVI = test: Growth inhibition of human LOXIMVI cells assessed as cell growth at 10^-4 M incubated for 48 hrs by sulforhodamine B assay relative to control; format: functional; conditions: read-out: Activity
UO-31 = test: Growth inhibition of human UO31 cells assessed as cell growth at 10^-5 M incubated for 48 hrs by sulforhodamine B assay relative to control; format: functional; conditions: UO-31, 48 h, read-out: Activity
SNB-19 = test: Growth inhibition of human SNB19 cells assessed as cell growth at 10^-8 M incubated for 48 hrs by sulforhodamine B assay relative to control; format: functional; conditions: SNB-19, 48 h, read-out: Activity
MOLT-4 = test: Growth inhibition of human MOLT4 cells assessed as cell growth at 10^-5 M incubated for 48 hrs by sulforhodamine B assay relative to control; format: functional; conditions: MOLT-4, 48 h, read-out: Activity
SF-295 [6] = test: Growth inhibition of human SF295 cells assessed as cell growth at 10^-6 M incubated for 48 hrs by sulforhodamine B assay relative to control; format: functional; conditions: SF-295, 48 h, read-out: Activity
HL-60 = test: Induction of apoptosis in human HL60 cells assessed as late apoptotic cells by propidium iodide/Annexin V staining based flow cytometry (reference value: 0.54%); format: functional
MCF7 = test: Growth inhibition of human MCF7 cells assessed as cell growth at 10^-5 M incubated for 48 hrs by sulforhodamine B assay relative to control; format: functional; conditions: MCF7, 48 h, read-out: Activity
A549 = test: Growth inhibition of human A549/ATCC cells assessed as cell growth at 10^-5 M incubated for 48 hrs by sulforhodamine B assay relative to control; format: functional; conditions: A549, 48 h, read-out: Activity
UACC-62 = test: Growth inhibition of human UACC62 cells assessed as cell growth at 10^-5 M incubated for 48 hrs by sulforhodamine B assay relative to control; format: functional; conditions: UACC-62, 48 h, read-out: Activity
SW-620 = test: Growth inhibition of human SW620 cells assessed as cell growth at 10^-6 M incubated for 48 hrs by sulforhodamine B assay relative to control; format: functional; conditions: SW-620, 48 h, read-out: Activity
ACHN = test: Growth inhibition of human ACHN cells assessed as cell growth at 10^-5 M incubated for 48 hrs by sulforhodamine B assay relative to control; format: functional; conditions: read-out: Activity
HCT-15 [7] = test: Growth inhibition of human HCT15 cells assessed as cell growth at 10^-4 M incubated for 48 hrs by sulforhodamine B assay relative to control; format: functional; conditions: HCT-15, 48 h, read-out: Activity
SF-295 [8] = test: Growth inhibition of human SF295 cells incubated for 48 hrs by sulforhodamine B assay; format: functional; conditions: SF-295, 48 h
MDA-MB-435 = test: Downregulation of HDAC1 mRNA expression in human MDA-MB-435 cells by qRT-PCR method; format: functional, cell-based
COLO 205 = test: Growth inhibition of human COLO205 cells assessed as cell growth at 10^-4 M incubated for 48 hrs by sulforhodamine B assay relative to control; format: functional; conditions: COLO 205, 48 h, read-out: Activity
SK-MEL-28 = test: Growth inhibition of human SK-MEL-28 cells assessed as cell growth at 10^-6 M incubated for 48 hrs by sulforhodamine B assay relative to control; format: functional; conditions: SK-MEL-28, 48 h, read-out: Activity
MDA-MB-231 = test: Growth inhibition of human MDA-MB-231 cells assessed as cell growth at 10^-7 M incubated for 48 hrs by sulforhodamine B assay relative to control; format: functional; conditions: MDA-MB-231, 48 h, read-out: Activity
NCI-H522 = test: Growth inhibition of human NCI-H522 cells assessed as cell growth at 10^-7 M incubated for 48 hrs by sulforhodamine B assay relative to control; format: functional; conditions: NCI-H522, 48 h, read-out: Activity
SN12C = test: Growth inhibition of human SN12C cells assessed as cell growth at 10^-7 M incubated for 48 hrs by sulforhodamine B assay relative to control; format: functional; conditions: read-out: Activity
SK-MEL-5 = test: Growth inhibition of human SK-MEL-5 cells assessed as cell growth at 10^-8 M incubated for 48 hrs by sulforhodamine B assay relative to control; format: functional; conditions: SK-MEL-5, 48 h, read-out: Activity
SK-OV-3 = test: Growth inhibition of human SKOV3 cells incubated for 48 hrs by sulforhodamine B assay; format: functional; conditions: SK-OV-3, 48 h
[9] = read-out: LC50 (the source's name)
[10] = read-out: pLC50 (the source's name) (converted)

CCS/C(Nc1ccccc1)=C(\C#N)C(=O)N/N=C\c1ccc(Cl)cc1Cl
growth at 10 µM (SK-MEL-2): 16%
growth at 10 µM (HCT-116 [1]): 7%
GI50 (HCT-116 [2]; read-out: GI50): 2.99 µM
CC50 (HCT-116 [2]; [9]): > 100 µM
TGI (HCT-116 [2]; read-out: TGI): > 100 µM
GI50 (HCT-116 [2]; read-out: pGI50 (converted)): 3.02 µM
CC50 (HCT-116 [2]; [10]): > 100 µM
TGI (HCT-116 [2]; read-out: pTGI (converted)): > 100 µM
growth at 100 µM (NCI-H460 [3]): 6%
growth at 0.01 µM (HCT-15 [4]): 99%
growth at 10 µM (IGROV-1): 42%
growth at 0.01 µM (BT-549): 98%
GI50 (A498; read-out: GI50): 1.87 µM
CC50 (A498; [9]): > 100 µM
TGI (A498; read-out: TGI): 37.8 µM
GI50 (A498; read-out: pGI50 (converted)): 1.86 µM
CC50 (A498; [10]): > 100 µM
TGI (A498; read-out: pTGI (converted)): 38 µM
growth at 10 µM (NCI-H460 [5]): 9%
growth at 100 µM (LOX IMVI): 22%
growth at 10 µM (UO-31): 43%
growth at 0.01 µM (SNB-19): 97%
growth at 10 µM (MOLT-4): 22%
growth at 1 µM (SF-295 [6]): 80%
Activity (HL-60): 8.54%
growth at 10 µM (MCF7): 14%
growth at 10 µM (A549): 29%
growth at 10 µM (UACC-62): 26%
growth at 1 µM (SW-620): 88%
growth at 10 µM (ACHN): 43%
growth at 100 µM (HCT-15 [7]): 11%
GI50 (SF-295 [8]; read-out: GI50): 2.89 µM
CC50 (SF-295 [8]; [9]): > 100 µM
TGI (SF-295 [8]; read-out: TGI): > 100 µM
GI50 (SF-295 [8]; read-out: pGI50 (converted)): 2.88 µM
CC50 (SF-295 [8]; [10]): > 100 µM
TGI (SF-295 [8]; read-out: pTGI): > 100 µM
Activity (MDA-MB-435): Active
growth at 100 µM (COLO 205): 3%
growth at 1 µM (SK-MEL-28): 79%
growth at 0.1 µM (MDA-MB-231): 97%
growth at 0.1 µM (NCI-H522): 82%
growth at 0.1 µM (SN12C): 92%
growth at 0.01 µM (SK-MEL-5): 101%
GI50 (SK-OV-3; read-out: GI50): 3.72 µM
CC50 (SK-OV-3; [9]): > 100 µM
TGI (SK-OV-3; read-out: TGI): > 100 µM
GI50 (SK-OV-3; read-out: pGI50 (converted)): 3.72 µM
CC50 (SK-OV-3; [10]): > 100 µM
TGI (SK-OV-3; read-out: pTGI (converted)): > 100 µM

CCS/C(Nc1ccccc1)=C(\C#N)C(=O)Nc1ccc(OC)cc1
growth at 10 µM (SK-MEL-2): 11%
growth at 10 µM (HCT-116 [1]): 3%
GI50 (HCT-116 [2]; read-out: GI50): 1.95 µM
CC50 (HCT-116 [2]; [9]): > 100 µM
TGI (HCT-116 [2]; read-out: TGI): 16.4 µM
GI50 (HCT-116 [2]; read-out: pGI50 (converted)): 1.95 µM
CC50 (HCT-116 [2]; [10]): > 100 µM
TGI (HCT-116 [2]; read-out: pTGI (converted)): 16.6 µM
growth at 100 µM (NCI-H460 [3]): -9%
growth at 0.01 µM (HCT-15 [4]): 98%
growth at 10 µM (IGROV-1): 39%
growth at 0.01 µM (BT-549): 98%
GI50 (A498; read-out: GI50): 2.54 µM
CC50 (A498; [9]): > 100 µM
TGI (A498; read-out: TGI): 26.6 µM
GI50 (A498; read-out: pGI50 (converted)): 2.57 µM
CC50 (A498; [10]): > 100 µM
TGI (A498; read-out: pTGI (converted)): 26.9 µM
growth at 10 µM (NCI-H460 [5]): 10%
growth at 100 µM (LOX IMVI): 12%
growth at 10 µM (UO-31): 37%
growth at 0.01 µM (SNB-19): 98%
growth at 10 µM (MOLT-4): 21%
growth at 1 µM (SF-295 [6]): 82%
Activity (HL-60): 7.19%
growth at 10 µM (MCF7): 15%
growth at 10 µM (A549): 35%
growth at 10 µM (UACC-62): 21%
growth at 1 µM (SW-620): 70%
growth at 10 µM (ACHN): 33%
growth at 100 µM (HCT-15 [7]): 4%
GI50 (SF-295 [8]; read-out: GI50): 3.06 µM
CC50 (SF-295 [8]; [9]): > 100 µM
TGI (SF-295 [8]; read-out: TGI): > 100 µM
GI50 (SF-295 [8]; read-out: pGI50 (converted)): 3.09 µM
CC50 (SF-295 [8]; [10]): > 100 µM
TGI (SF-295 [8]; read-out: pTGI): > 100 µM
Activity (MDA-MB-435): Active
growth at 100 µM (COLO 205): -17%
growth at 1 µM (SK-MEL-28): 85%
growth at 0.1 µM (MDA-MB-231): 94%
growth at 0.1 µM (NCI-H522): 94%
growth at 0.1 µM (SN12C): 97%
growth at 0.01 µM (SK-MEL-5): 98%
GI50 (SK-OV-3; read-out: GI50): 3.28 µM
CC50 (SK-OV-3; [9]): > 100 µM
TGI (SK-OV-3; read-out: TGI): 50.2 µM
GI50 (SK-OV-3; read-out: pGI50 (converted)): 3.31 µM
CC50 (SK-OV-3; [10]): > 100 µM
TGI (SK-OV-3; read-out: pTGI (converted)): 50.1 µM
